The values that follow come from patent publication US9611252B2 (LifeSci Pharmaceuticals, Inc., priority 2013, dated 2017).

The target in assay [1] is human Plasma Kallikrein (Homo sapiens (Human), UniProt P03952). The experiment in a line: In vitro enzyme inhibition of human plasma kallikrein (PFR-AMC cleavage). Format: biochemical. To be noted: human plasma kallikrein, Pro-Phe-Arg-AMC substrate, 37° C.; read-out: hPK IC50. Put shortly:
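Compound pre-incubated with human plasma kallikrein 5 min at 37° C in 50 mM Tris-HCl pH 7.5, 150 mM NaCl, 0.01% Triton X-100. Reaction started with PFR-AMC, cleavage read kinetically at 37° C every 43 s for 1 h.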

The target of assay [2] is kallikrein (Homo sapiens (Human), UniProt P03952). Briefly: In vitro cellular assay (contact assay): kallikrein activity in ellagic acid-activated human plasma, substrate Z-FR-2-AMC. In kind it is biochemical. To be noted: human plasma activated with ellagic acid, Z-FR-2-AMC substrate, 37° C.; read-out: Contact Assay EC50. As to the method: The ability of the compounds disclosed herein to inhibit cellular kallikrein activity was quantified and the respective EC50 value was determined.
All dilutions were prepared in an assay buffer comprising 50 mM Tris-HCl pH 7.2, 150 mM NaCl, and 0.01% Triton X-100.
The ten solutions of the test compounds, prepared by serial dilution, were further diluted 50-fold in the assay buffer.
Human plasma is thawed on ice and centrifuged for 15 min at 4° C. to remove platelets. A 1 mM stock solution of ellagic acid is diluted to 8 μM and mixed with human plasma, after removing platelets, at a ratio of 1:0.8.
A 22.5 μL volume of the final mixture of human plasma and ellagic acid was added to a 96-well microwell plate and the plate was incubated for 15 min at 37° C.
The CINH inhibitor at various concentrations, prepared by serial dilutions as described above, were added to the inhibitor control wells. […] Each CINH concentration is tested in duplicates.
The test compounds at various concentrations, also prepared by serial dilutions as described above, are added to the test wells. […] Each test compound concentration was tested in duplicates.
In addition to the inhibitor control and test wells, the 96 well assay plate includes positive control wells which contained the mixture of human plasma and ellagic acid without C1NH inhibitor or test compounds, and background wells which contained neither the mixture of human plasma and ellagic acid nor the test compounds. The total volume of liquid in positive control and background wells was brought up to 35 μL, using the assay buffer.
The assay plate containing C1NH inhibitors and test compounds mixed with human plasma and ellagic acid and appropriate controls was incubated at 37° C. for 5 min. […] The reagents were mixed well by shaking the plate gently for 30 sec.
The enzyme reaction was quantified by immediate kinetic reading of the assay plate using excitation/emission wavelengths of 330 nm/440 nm respectively. Fluorescence intensity was recorded for 60 min, using a time interval of 43 sec.
The inhibition activity of the test compounds were evaluated using the IC50 values, calculated according to the dose-response curve of the test compounds, fitted using the “log(inhibitor)-response (variable slope)” equation in GraphPadPrism software (GraphPad Software, Inc.).
The percentage inhibition was calculated using the following equation:
[formula] where, Mean(BG) is the average value of the fluorescence intensity of the background wells and Mean(PC) is the average value of the fluorescence intensity of the positive control wells.
Table 4 provides the EC50 values of various compounds disclosed herein.

Chain of kallikrein (P03952 20-638): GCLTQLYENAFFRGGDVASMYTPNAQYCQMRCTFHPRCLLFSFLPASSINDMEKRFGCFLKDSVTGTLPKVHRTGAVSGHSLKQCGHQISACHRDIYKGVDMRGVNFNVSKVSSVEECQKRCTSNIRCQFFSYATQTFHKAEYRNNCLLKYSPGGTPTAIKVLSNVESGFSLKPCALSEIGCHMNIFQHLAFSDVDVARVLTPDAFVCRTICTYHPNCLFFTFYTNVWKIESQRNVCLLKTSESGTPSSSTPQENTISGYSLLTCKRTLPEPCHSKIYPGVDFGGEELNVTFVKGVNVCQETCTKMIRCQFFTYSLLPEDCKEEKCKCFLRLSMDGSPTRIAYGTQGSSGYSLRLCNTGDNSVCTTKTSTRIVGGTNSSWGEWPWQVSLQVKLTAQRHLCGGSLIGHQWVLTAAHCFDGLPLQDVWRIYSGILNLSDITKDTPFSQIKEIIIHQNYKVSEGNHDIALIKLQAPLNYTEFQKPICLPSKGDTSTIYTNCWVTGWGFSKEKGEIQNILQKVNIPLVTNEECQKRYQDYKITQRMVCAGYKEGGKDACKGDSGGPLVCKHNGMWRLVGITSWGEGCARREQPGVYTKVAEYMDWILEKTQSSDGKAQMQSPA
Chain of human Plasma Kallikrein (P03952 20-638): as above

For the molecule `Cc1cnc2c(C#N)cc(Cc3cc(C(=O)NCc4cc5c(Cl)c[nH]c5cc4F)ccn3)cc2c1` [Example 72, N-((3-chloro-6-fluoro-1H-indol-5-yl)methyl)-2-((8-cyano-3-methylquinolin-6-yl)methyl)isonicotinamide], in assay [1], the 50% inhibitory concentration (IC50) (in general, the point on the concentration scale where inhibition reaches its midpoint) was less than 100 nM. Further, the EC50 (commonly the midpoint of the concentration-response curve) in assay [2] lay in the range of 100 to 1000 nM.

As for `Cc1cnc2c(C(N)=O)cc(Cc3cc(C(=O)NCc4cc5c(Cl)c[nH]c5cc4F)ccn3)cc2c1` [Example 78, 6-((4-(((3-chloro-6-fluoro-1H-indol-5-yl)methyl)carbamoyl)pyridin-2-yl)methyl)-3-methylquinoline-8-carboxamide], the 50% inhibitory concentration (IC50) in assay [1] is less than 100 nM. The EC50 in assay [2] was less than 100 nM.

For `NC(=O)c1cc(Cc2cc(C(=O)NCc3cc4c(Cl)c[nH]c4cc3F)ccn2)cc2cc(Cl)cnc12` [Example 59, 3-chloro-6-((4-(((3-chloro-6-fluoro-1H-indol-5-yl)methyl)carbamoyl)pyridin-2-yl)methyl)quinoline-8-carboxamide], the IC50 in assay [1] is less than 100 nM. In assay [2], the EC50 lay within 100 to 1000 nM.

For `Cc1cnc2c(C#N)cc(Cc3cc(C(=O)NCc4c(C)cc(N)nc4C)ccn3)cc2c1` [Example 70, N-((6-amino-2,4-dimethylpyridin-3-yl)methyl)-2-((8-cyano-3-methylquinolin-6-yl)methyl)isonicotinamide], the IC50 in assay [1] was less than 100 nM. Further, the EC50 in assay [2] was less than 100 nM.
